According to patent US4764521A, “Leukotriene antagonists and a method of use there as” (Eli Lilly and Company, priority 1986, dated 1988):

Assays:
[1] = tested on: LTD4 evoked ileal contractions (guinea pig ileum); assay: Inhibition of LTD4 evoked contractions in isolated ileum (single submaximal LTD4 response, five minute drug exposure); assay type: cell-based, Male, Hartley guinea pigs; details: Cavia porcellus, read-out: Percent inhibition of LTD4 evoked ileal contractions; for inhibition at 0.1 µM: Compound concentration 1 × 10^-7 M; for inhibition at 0.3 µM: Compound concentration 3 × 10^-7 M; for inhibition at 1 µM: Compound concentration 1 × 10^-6 M; for inhibition at 3 µM: Compound concentration 3 × 10^-6 M
Method: (§1) A section of terminal ileum was removed, the lumen cleaned, and the tissue divided into 2.5 cm. segments. The ilea were mounted in 10 ml. tissue baths containing Krebs-bicarbonate solution of the following composition in mmoles/ liter: KCl, 4.6; CaCl2 ·2H2 O, 1.2; KH2 PO4, 1.2; MgSO4 ·7H2 O, 1.2; NaCl, 118.2; NaHCO3, 24.8; and dextrose, 10.0. The bath fluid was maintained at 37° C. and aerated with 95 percent oxygen and 5 percent CO2. In addition, the buffer contained 1×10^- 6M atropine to reduce ileal spontaneous activity. Isometric measurements were made with a Grass FTO3C force-displacement transducer and recorded on a Grass polygraph as change in grams of force. A passive force of 0.5 g. was applied to the tissues. After an appropriate equilibration period, single submaximal control responses to pure LTD4 were obtained. Following a five minute exposure of the ileum to an experimental drug, the control concentration of LTD4 was added to the tissue bath. The response of the ileum to LTD4 in the presence of the drug was compared to the response in the absence of the drug. For some of the drugs in this series a more detailed analysis of LTD4 antagonism was made. In these experiments, cumulative concentration-response curves were obtained to LTD4 in guinea pig ileum and trachea. This was followed by a 30 minute incubation with various concentrations of the experimental drug. The concentration response curve to LTD4 was then repeated in the presence of the antagonist. Only one concentration of antagonist was used on a single tissue. KB values were calculated by the method of Furchgott [Ann. N.Y. Acad. Sci., 139, 553 (1967)]using the following equation. [formula]

[2] = molecular target: T1, LTD4 (guinea pig ileum and trachea) (Cavia porcellus, UniProt Q2NNR5); assay: LTD4 antagonism, cumulative concentration-response curves to LTD4 (KB / pA2, Schild); assay type: cell-based; details: negative log of KB, 30 minute incubation
T1 construct: A section of terminal ileum was removed, the lumen cleaned, and the tissue divided into 2.5 cm. segments; from tissue; host or cells: isolated ileum and trachea of guinea pig (ileum: male Hartley, terminal ileum)
T1 sequence (Q2NNR5 1-340): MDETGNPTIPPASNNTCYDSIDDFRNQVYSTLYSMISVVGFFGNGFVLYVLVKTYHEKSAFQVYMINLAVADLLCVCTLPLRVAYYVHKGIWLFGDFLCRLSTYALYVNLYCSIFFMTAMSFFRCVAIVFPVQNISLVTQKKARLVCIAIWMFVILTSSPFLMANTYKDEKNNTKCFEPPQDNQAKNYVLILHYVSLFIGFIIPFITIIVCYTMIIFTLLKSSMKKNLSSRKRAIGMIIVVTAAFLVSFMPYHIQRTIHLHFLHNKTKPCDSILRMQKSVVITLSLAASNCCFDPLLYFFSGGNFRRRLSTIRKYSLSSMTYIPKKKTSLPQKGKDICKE
Method: as §1, with “Male, Hartley guinea pigs weighing 200-450 grams were killed by decapitation. A section” for “A section”
Dose ratio refers to the concentration of agonist required to elicit 50 percent of the maximal response (ED50) in the presence of the antagonist divided by the ED50 in the absence of the antagonist. Calculations were performed with the aid of a computer and a digital plotter.

In the case of `CCCc1c(OCCCSc2nn[nH]n2)ccc(Cl)c1Cl` [Example 8, 5-[3-(2-Propyl1-3,4-dichlorophenoxy)propanethio]-tetrazole], the inhibition at 0.1 µM [1] is reported as 59% and the inhibition at 0.3 µM [1] is reported as 79%.

With `CCCc1c(OCCCCc2nnn[nH]2)ccc(Cl)c1Cl` [Example 2, 5-[4-(2-Propyl-3,4-dichlorophenoxy)butyl]-tetrazole] the Kb [2] was 100 nM, the inhibition at 1 µM [1] was 94% and the inhibition at 0.1 µM [1] was 56%. For the same molecule, the inhibition at 0.3 µM [1] was 70%.

`CCCc1c(OCCCCc2nnn[nH]2)ccc(C(C)=O)c1Cl` [Example 5, 5-[4-(2-Propyl-3-chloro-4-acetylphenoxy)butyl]-tetrazole] gave a Kb ([2]; *estimated) of 105 nM, an inhibition at 0.1 µM [1] of 49% and an inhibition at 0.3 µM [1] of 73%.

`O=C(O)CCCCCOc1ccc(Cl)c(Cl)c1CCO` [Example 10, 6-[2-(2-Hydroxyethyl)-3,4-dichlorophenoxy]hexanoic acid] was tested, and the inhibition at 3 µM [1] was 22%.

`CCCCCc1c(OCCCCCC(=O)O)ccc(Cl)c1Cl` [Example 9, 6-(2-Pentyl-3,4-dichlorophenoxy)hexanoic acid] was tested, and the inhibition at 1 µM [1] was 21% and the inhibition at 3 µM [1] was 57%.

Molecule `CCCc1c(OCCCCCCc2nn[nH]n2)ccc(Cl)c1Cl` [Example 4, 5-[6-(2-Propyl-3,4-dichlorophenoxy)hexyl]-tetrazole] has a pA2 ([2]; *estimated) of 7.0, an inhibition at 1 µM [1] of 84% and an inhibition at 3 µM [1] of 96%.

`CCCCCCCCCCCCc1c(OCCCCCc2nnn[nH]2)ccc(Cl)c1Cl` [Example 7, 5-[5-(2-Dodecyl-3,4-dichlorophenoxy)pentyl]tetrazole] gave an inhibition at 3 µM [1] of 16%.

`CCCc1c(OCCCCc2nnn[nH]2)ccc(Cl)c1O` [Example 11, 5-[4-(2-Propyl-3-hydroxy-4-chlorophenoxy)butyl]-tetrazole] gave a Kb ([2]; *estimated) of 3160 nM and an inhibition at 3 µM [1] of 20%.

In the case of `CCCc1c(OCCCCCCC(=O)O)ccc(Cl)c1Cl` [Example 12, 7-(2-Propyl-3,4-dichlorophenoxy)heptanoic acid], the inhibition at 3 µM [1] is reported as 31%.

Work on `CCCc1c(OCCCCCc2nnn[nH]2)ccc(Cl)c1Cl` [Example 3, 5-[5-(2-Propyl-3,4-dichlorophenoxy)pentyl]-tetrazole] yielded a Kb ([2]; *estimated) of 251 nM, an inhibition at 1 µM [1] of 75% and an inhibition at 3 µM [1] of 92%. The inhibition at 0.3 µM [1] was 51%.

`CCCc1c(OCCCCCC(=O)O)ccc(Cl)c1Cl` [Example 1, 6-(2-Propyl-3,4-dichlorophenoxy)hexanoic acid] showed an inhibition at 1 µM [1] of 51% and an inhibition at 3 µM [1] of 78%.

With `CCCCCCCCc1c(OCCCCCCc2nnn[nH]2)ccc(Cl)c1Cl` [Example 6, 5-[6-(2-Octyl-3,4-dichlorophenoxy)hexyl]-tetrazole] the inhibition at 1 µM [1] was 53% and the inhibition at 3 µM [1] was 59%.
